Results taken from patent publication US8912186B2, “Allosteric protein kinase modulators” (Universitaet des Saarlandes, priority 2008, dated 2014).

How the values were obtained:
Format in all cases: biochemical
[1] = target: T1, PDK1 (Homo sapiens, UniProt O15530); assay: cell-free kinase activity assay (ATPgamma[32P], T308tide substrate); details: for AC50 / AC50 PDK1 (μM): concentration of the compound required to activate half maximally; for AC50 / max. activation of PDK1 (fold) / AC50 PDK1 (μM): n.e.: no effect; for max. activation of PDK1 (fold): maximum activation achievable, compared to the basal activity of PDK1
T1 construct: GST
T1 sequence (O15530 1-556): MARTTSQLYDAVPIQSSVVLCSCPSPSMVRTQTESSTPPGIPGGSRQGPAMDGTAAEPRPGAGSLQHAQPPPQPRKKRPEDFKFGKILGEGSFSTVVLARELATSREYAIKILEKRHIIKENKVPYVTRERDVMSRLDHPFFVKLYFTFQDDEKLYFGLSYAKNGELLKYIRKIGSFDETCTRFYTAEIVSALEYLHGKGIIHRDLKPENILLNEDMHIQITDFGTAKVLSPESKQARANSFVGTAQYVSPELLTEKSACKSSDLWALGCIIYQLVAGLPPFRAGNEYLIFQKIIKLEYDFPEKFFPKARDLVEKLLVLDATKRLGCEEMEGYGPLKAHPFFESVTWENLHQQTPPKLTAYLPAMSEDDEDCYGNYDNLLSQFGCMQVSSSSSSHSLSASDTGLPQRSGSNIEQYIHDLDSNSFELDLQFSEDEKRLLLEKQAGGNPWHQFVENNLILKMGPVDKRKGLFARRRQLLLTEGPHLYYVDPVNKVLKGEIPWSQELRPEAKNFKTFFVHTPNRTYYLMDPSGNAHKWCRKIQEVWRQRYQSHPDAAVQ
Excerpt: Principle of the cell-free kinase activity assay: In general, the activity of the compounds as protein kinase inhibitors or activators may be assayed in vitro (cell free assay is meant here), in vivo or in a cell line. In vitro assays include assays that determine inhibition or activation of either the phosphorylation activity or ATPase activity of the activated protein kinase. Alternate in vitro assays quantitate the ability of the inhibitor to bind to the protein kinase. Compound binding may be measured by radiolabelling the compound prior to binding, isolating the inhibitor or activator/protein kinase complex and determining the amount of radiolabel bound. Alternatively, inhibitor or activator binding may be determined by running a competition experiment where new compounds are incubated with the protein kinase bound to known radioligands. Newer methods comprise fluorescence polarisation assays and surface plasmon resonance dependent techniques. […] The activity and modulation of activity is measured using a standard ATPgamma[^32P] assay as described earlier. […] The concentration of T308tide is 1 mM and the amount of PDK1 used is 200 ng. Reactions are carried out at room temperature. Reaction is started by addition of ATP-Mg mix and stopped with phosphoric acid after 30 min. Stopped reactions were spotted on to phosphocellulose paper (P81, Whatman) and washed. After drying, the radioactivity associated to the band was quantified.

[2] = target: T2, SGK (Homo sapiens, UniProt O00141); assay: cell-free kinase activity assay; details: DMSO control set 100%
T2 sequence (O00141 1-431): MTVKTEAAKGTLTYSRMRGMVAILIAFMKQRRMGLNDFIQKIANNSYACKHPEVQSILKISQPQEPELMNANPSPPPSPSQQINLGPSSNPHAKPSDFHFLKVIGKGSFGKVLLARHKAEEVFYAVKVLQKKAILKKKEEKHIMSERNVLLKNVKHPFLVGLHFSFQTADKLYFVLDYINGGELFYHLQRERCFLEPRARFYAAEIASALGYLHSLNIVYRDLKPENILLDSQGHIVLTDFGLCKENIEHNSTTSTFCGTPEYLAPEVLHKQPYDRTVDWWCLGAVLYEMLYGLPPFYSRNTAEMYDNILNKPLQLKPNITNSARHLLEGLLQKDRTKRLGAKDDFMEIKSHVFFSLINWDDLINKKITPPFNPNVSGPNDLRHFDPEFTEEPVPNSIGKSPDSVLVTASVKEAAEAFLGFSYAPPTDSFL

[3] = target: PRK2 (Homo sapiens, UniProt Q16513); assay: cell-free kinase activity assay; details: DMSO control set 100%
[4] = target: S6K (Homo sapiens, UniProt P23443); assay: cell-free kinase activity assay; details: DMSO control set 100%
[5] = target: PKBβ (Homo sapiens, UniProt P31751); assay: cell-free kinase activity assay; details: DMSO control set 100%
[6] = target: PKA (Homo sapiens, UniProt P17612); assay: cell-free kinase activity assay; details: DMSO control set 100%

Sequence of S6K (P23443 whole entry): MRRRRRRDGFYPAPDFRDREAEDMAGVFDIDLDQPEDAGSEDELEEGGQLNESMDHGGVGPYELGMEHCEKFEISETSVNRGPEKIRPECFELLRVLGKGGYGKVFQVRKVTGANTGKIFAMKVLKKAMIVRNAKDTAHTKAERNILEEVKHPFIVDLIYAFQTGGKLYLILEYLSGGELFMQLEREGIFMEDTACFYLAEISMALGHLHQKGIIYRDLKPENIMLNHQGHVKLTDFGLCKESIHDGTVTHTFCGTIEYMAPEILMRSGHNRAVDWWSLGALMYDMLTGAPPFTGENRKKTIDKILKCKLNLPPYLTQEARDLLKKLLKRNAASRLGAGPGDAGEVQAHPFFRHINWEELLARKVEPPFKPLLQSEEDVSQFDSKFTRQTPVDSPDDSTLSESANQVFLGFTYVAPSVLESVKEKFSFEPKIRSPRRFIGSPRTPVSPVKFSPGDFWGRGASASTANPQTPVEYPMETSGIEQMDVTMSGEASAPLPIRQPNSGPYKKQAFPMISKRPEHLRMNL
Sequence of PRK2 (Q16513 whole entry, species assumed): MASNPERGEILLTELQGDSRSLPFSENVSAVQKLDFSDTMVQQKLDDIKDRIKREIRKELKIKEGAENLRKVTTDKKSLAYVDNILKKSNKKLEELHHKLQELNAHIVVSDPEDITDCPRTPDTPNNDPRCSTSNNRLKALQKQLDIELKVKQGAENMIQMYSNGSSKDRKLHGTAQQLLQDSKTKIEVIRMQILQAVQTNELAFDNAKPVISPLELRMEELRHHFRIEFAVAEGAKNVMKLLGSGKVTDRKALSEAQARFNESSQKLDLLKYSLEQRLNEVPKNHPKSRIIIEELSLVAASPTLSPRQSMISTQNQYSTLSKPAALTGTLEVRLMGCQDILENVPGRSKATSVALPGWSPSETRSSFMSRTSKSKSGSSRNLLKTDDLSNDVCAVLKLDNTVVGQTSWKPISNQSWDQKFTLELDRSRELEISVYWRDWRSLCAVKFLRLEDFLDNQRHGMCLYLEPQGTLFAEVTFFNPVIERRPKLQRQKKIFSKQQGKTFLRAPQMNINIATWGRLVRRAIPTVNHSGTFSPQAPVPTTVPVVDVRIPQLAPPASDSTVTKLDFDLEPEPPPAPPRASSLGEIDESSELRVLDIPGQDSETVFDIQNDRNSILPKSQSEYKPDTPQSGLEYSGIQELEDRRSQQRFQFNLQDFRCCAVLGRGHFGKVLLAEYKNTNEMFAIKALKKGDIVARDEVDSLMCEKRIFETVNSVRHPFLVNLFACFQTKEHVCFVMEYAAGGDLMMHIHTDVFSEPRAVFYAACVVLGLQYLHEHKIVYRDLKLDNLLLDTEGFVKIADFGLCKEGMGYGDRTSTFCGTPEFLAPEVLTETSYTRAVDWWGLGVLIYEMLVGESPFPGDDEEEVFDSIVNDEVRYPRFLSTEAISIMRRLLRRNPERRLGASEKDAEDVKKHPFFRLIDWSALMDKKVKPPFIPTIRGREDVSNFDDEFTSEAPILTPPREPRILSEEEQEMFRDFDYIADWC
Sequence of PKBβ (P31751 whole entry, species assumed): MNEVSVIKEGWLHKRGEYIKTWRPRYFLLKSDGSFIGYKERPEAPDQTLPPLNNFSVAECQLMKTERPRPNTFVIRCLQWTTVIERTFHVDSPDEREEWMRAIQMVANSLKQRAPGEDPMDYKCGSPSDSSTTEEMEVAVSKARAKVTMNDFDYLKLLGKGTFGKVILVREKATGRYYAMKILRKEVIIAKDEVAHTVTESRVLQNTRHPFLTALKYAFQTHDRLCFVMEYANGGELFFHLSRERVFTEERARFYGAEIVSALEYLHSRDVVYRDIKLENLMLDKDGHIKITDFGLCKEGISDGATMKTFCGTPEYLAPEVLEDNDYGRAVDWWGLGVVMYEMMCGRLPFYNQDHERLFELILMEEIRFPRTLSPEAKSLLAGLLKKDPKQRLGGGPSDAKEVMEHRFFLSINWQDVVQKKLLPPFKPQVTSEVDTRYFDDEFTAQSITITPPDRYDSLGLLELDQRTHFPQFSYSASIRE

Row | Structure (SMILES) | AC50 [1] | max. activation of PDK1 (fold) [1] | further results
1 | O=C(O)C=C(c1ccccc1)c1cc2cc(Cl)ccc2o1 (mixture of isomers) [PS 101, (E/Z)-3-(5-Chloro-2-benzofuranyl)-3-phenylacrylic acid] | 31.6 µM | 3.2 fold | –
2 | Cc1ccc2oc(C(=CC(=O)O)c3ccccc3)cc2c1 (mixture of isomers) [PS 103, (E/Z)-3-(5-Methyl-2-benzofuranyl)-3-phenylacrylic acid] | 41.3 µM | 3.1 fold | –
3 | O=C(O)/C=C(\CCc1cccc(Cl)c1)c1ccccc1 [PS 88, (E)-5-(3-Chlorophenyl)-3-phenylpent-2-enoic acid] | > 100 µM | 2 fold | –
4 | O=C(O)/C=C(\COc1ccc(Cl)cc1)c1ccccc1 [PS 95, (Z)-4-(4-Chlorophenoxy)-3-phenylbut-2-enoic acid] | > 60 µM | 2.7 fold | –
5 | O=C(O)/C=C(/COc1ccc(Cl)cc1)c1ccccc1 [PS 97, (E)-4-(4-Chlorophenoxy)-3-phenylbut-2-enoic acid] | 22.8 µM | 3.0 fold | –
6 | O=C(O)/C=C(\c1ccccc1)c1cc2cc(Cl)ccc2s1 [PS 119, (E)-3-(5-Chloro-2-benzothiophenyl)-3-phenylacrylic acid] | 13.2 µM | 3.1 fold | –
7 | Cc1ccc2oc(C(CC(=O)O)c3ccccc3)cc2c1 (centres unmarked) [PS 120, 3-(5-Methyl-2-benzofuranyl)-3-phenylpropanoic acid] | 29.1 µM | 2.7 fold | –
8 | O=C(O)CC(c1ccccc1)c1cc2cc(Cl)ccc2o1 (centres unmarked) [PS 124, 3-(5-Chloro-2-benzofuranyl)-3-phenylpropanoic acid] | 19 µM | 2.9 fold | –
9 | CCc1ccc(CC/C(=C\C(=O)O)c2ccccc2)cc1 [PS 129, (E)-5-(4-Ethylphenyl)-3-phenylpent-2-enoic acid] | > 100 µM | 1.5 fold | –
10 | CCc1ccc(CC/C(=C/C(=O)O)c2ccccc2)cc1 [PS 130, (Z)-5-(4-Ethylphenyl)-3-phenylpent-2-enoic acid] | > 30 µM | 1.4 fold | –
11 | O=C(O)/C=C(\CCc1ccc(Cl)c(Cl)c1)c1ccccc1 [PS 131, (E)-5-(3,4-Dichlorophenyl)-3-phenylpent-2-enoic acid] | > 100 µM | 2 fold | –
12 | O=C(O)/C=C(\CCc1ccc(Cl)cc1Cl)c1ccccc1 [PS 135, (E)-5-(2,4-Dichlorophenyl)-3-phenylpent-2-enoic acid] | – | n.e. | AC50 PDK1 (μM) [1]: n.e.
13 | O=C(O)/C=C(\CCc1ccc(F)cc1)c1ccccc1 [PS 136, (E)-5-(4-Fluorophenyl)-3-phenylpent-2-enoic acid] | > 100 µM | 1.3 fold | –
14 | O=C(O)/C=C(\CCc1ccc(Br)cc1)c1ccccc1 [PS 137, (E)-5-(4-Bromophenyl)-3-phenylpent-2-enoic acid] | > 100 µM | 2 fold | –
15 | O=C(O)/C=C(\CCc1ccc2ccccc2c1)c1ccccc1 [PS 138, (E)-5-(2-Naphthalenyl)-3-phenylpent-2-enoic acid] | 27.1 µM | 3.1 fold | –
16 | O=C(O)/C=C(\CCc1ccc(C(F)(F)F)cc1)c1ccccc1 [PS 140, (E)-3-Phenyl-5-[4-(trifluoromethyl)phenyl]pent-2-enoic acid] | – | n.e. | AC50 PDK1 (μM) [1]: n.e.
17 | O=C(O)/C=C(\CCc1c[nH]c2ccccc12)c1ccccc1 [PS 158, (E)-5-(1H-Indol-3-yl)-3-phenylpent-2-enoic acid] | 34.6 µM | 2.9 fold | –
18 | O=C(O)/C=C(/CCc1c[nH]c2ccccc12)c1ccccc1 [PS 159, (Z)-5-(1H-Indol-3-yl)-3-phenylpent-2-enoic acid] | 9.3 µM | 3.7 fold | –
19 | O=C(O)CC(Cc1nc2c(Cl)cc(Cl)cc2[nH]1)c1ccc(Cl)cc1 (centres unmarked) [PS 171, 4-(5,7-Dichloro-2-benzimidazolyl)-3-(4-chlorophenyl)butanoic acid] | – | – | activity at 200 µM ([1]; 200 μM compound, DMSO control set 100%, read-out: percent of catalytic activity of the Kinase in the presence of compound as compared to the solvent control (DMSO): PDK1): ~200%; percent of catalytic activity of the Kinase in the presence of compound as compared to the solvent control (DMSO): SGK ([2]; 50 μM compound): no effect; remaining activity at 200 µM ([2]; 200 μM compound, read-out: percent of catalytic activity of the Kinase in the presence of compound as compared to the solvent control (DMSO): SGK): ~70%; percent of catalytic activity of the Kinase in the presence of compound as compared to the solvent control (DMSO): PRK2 ([3]; 50 μM compound): no effect; percent of catalytic activity of the Kinase in the presence of compound as compared to the solvent control (DMSO): PRK2 ([3]; 200 μM compound): no effect; percent of catalytic activity of the Kinase in the presence of compound as compared to the solvent control (DMSO): S6K ([4]; 50 μM compound): weak inhib.; remaining activity at 200 µM ([4]; 200 μM compound, read-out: percent of catalytic activity of the Kinase in the presence of compound as compared to the solvent control (DMSO): S6K): ~50%; percent of catalytic activity of the Kinase in the presence of compound as compared to the solvent control (DMSO): PKBβ ([5]; 50 μM compound): no effect; remaining activity at 200 µM ([5]; 200 μM compound, read-out: percent of catalytic activity of the Kinase in the presence of compound as compared to the solvent control (DMSO): PKBβ): ~70%; percent of catalytic activity of the Kinase in the presence of compound as compared to the solvent control (DMSO): PKA ([6]; 50 μM compound): no effect; remaining activity at 200 µM ([6]; 200 μM compound, read-out: percent of catalytic activity of the Kinase in the presence of compound as compared to the solvent control (DMSO): PKA): 80 to 90%
20 | O=C(O)/C=C(/CCc1ccc(F)cc1)c1ccccc1 [PS-T3, (Z)-5-(4-Fluorophenyl)-3-phenylpent-2-enoic acid] | 41 µM | 3.3 fold | –
21 | O=C(O)/C=C(/CCc1ccc2ccccc2c1)c1ccccc1 [PS-T4, (Z)-5-(2-Naphthalenyl)-3-phenylpent-2-enoic acid] | 4 µM | more than 4 fold | max. activation of PDK1 (fold) ([1]; listed as T4): 4.2 fold
22 | O=C(O)/C=C(/CCc1ccc(Cl)c(Cl)c1)c1ccccc1 [PS-T7, (Z)-5-(3,4-Dichlorophenyl)-3-phenylpent-2-enoic acid] | 8 µM | 3.4 fold | –
23 | O=C(O)/C=C(/CCc1ccc(Cl)cc1Cl)c1ccccc1 [PS-T9, (Z)-5-(2,4-Dichlorophenyl)-3-phenylpent-2-enoic acid] | 9.4 µM | 2.2 fold | –
